Assay results: patent US9783527B2, “Indazole ureas and method of use” (AbbVie Inc., priority 2014, dated 2017)

Biological target: human Nav1.7 (Homo sapiens (Human), UniProt Q15858)
Experiment: FRET-based membrane potential assay, recombinant human sodium channel Nav1.7
Format: cell-based
Conditions: HEK293 cells stably expressing recombinant human Nav1.7; depolarization with veratridine (EC80) + scorpion venom
How it was run: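 IC50 derived by four-parameter Hill fit of percent inhibition of depolarization, measured as peak F440-480/F565-625 ratio over baseline. Stable human Nav1.7 HEK293 cells, dye-loaded with CC2-DMPE and DiSBAC2(3)/VABSC-1 at room temperature, received compound 3 min ahead of veratridine (EC80) plus scorpion venom.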

Chain of human Nav1.7 (Q15858 whole entry): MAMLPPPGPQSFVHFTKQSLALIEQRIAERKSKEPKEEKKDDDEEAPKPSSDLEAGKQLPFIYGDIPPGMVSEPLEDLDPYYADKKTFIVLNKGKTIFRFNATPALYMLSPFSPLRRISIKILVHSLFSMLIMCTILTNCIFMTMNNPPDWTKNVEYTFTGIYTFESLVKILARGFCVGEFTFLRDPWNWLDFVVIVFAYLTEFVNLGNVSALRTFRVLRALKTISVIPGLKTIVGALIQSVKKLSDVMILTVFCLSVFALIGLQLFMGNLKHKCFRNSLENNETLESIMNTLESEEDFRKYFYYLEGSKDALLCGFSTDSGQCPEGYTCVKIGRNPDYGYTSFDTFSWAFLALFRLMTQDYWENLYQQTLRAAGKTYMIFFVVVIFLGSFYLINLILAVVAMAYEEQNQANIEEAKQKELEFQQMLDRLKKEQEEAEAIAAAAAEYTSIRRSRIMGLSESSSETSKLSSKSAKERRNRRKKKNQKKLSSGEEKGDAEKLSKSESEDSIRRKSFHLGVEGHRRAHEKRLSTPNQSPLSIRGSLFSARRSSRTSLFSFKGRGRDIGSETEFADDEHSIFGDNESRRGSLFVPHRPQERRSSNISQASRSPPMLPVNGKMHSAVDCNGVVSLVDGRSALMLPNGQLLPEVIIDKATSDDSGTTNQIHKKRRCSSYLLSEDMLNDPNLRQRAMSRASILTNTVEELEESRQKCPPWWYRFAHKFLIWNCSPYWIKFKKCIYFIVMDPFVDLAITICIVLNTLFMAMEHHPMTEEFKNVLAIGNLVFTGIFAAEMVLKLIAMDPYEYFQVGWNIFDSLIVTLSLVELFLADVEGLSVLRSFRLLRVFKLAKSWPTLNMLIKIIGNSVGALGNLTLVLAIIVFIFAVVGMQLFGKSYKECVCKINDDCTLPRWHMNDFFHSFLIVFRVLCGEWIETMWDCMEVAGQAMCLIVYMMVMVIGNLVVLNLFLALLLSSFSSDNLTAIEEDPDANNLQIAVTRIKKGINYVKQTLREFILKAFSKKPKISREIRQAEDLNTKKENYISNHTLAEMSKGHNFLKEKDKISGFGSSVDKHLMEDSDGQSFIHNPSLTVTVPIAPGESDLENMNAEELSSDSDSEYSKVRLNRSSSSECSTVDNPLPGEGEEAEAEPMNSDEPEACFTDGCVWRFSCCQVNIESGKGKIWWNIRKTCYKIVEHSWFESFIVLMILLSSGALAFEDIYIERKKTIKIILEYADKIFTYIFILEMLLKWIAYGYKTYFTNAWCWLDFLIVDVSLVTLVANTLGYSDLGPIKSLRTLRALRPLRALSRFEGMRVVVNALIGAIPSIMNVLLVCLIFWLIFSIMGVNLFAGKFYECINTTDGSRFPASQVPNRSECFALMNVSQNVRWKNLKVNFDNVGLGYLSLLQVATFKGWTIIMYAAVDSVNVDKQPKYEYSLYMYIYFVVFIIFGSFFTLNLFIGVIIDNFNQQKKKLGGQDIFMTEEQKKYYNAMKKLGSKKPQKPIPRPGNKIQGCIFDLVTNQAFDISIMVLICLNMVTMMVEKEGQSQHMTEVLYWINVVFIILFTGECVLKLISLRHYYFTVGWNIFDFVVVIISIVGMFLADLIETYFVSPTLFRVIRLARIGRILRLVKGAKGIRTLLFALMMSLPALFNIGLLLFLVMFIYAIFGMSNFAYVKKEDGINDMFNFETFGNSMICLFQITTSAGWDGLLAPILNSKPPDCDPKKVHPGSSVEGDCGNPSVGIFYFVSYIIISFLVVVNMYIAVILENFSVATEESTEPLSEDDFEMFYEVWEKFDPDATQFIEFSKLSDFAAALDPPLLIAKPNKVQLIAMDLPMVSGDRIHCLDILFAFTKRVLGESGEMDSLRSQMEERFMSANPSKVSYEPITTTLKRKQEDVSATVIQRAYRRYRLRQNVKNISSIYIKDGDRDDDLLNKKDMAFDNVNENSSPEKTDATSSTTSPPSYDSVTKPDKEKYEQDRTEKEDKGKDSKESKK

| Structure (SMILES) | IC50 [µM] |
| --- | --- |
| CN1CCCC2CN(C(=O)CN3CCN(c4cccc5c4cnn5-c4ccccc4F)C3=O)CC21 (stereo not drawn) [Example 112, 1-[1-(2-fluorophenyl)-1H-indazol-4-yl]-3-[2-(1-methyloctahydro-6H-pyrrolo[3,4-b]pyridin-6-yl)-2-oxoethyl]imidazolidin-2-one] | 2.69 |
| O=C1N(Cc2ncccn2)CCN1c1cccc2c1cnn2-c1ccccc1F [Example 218, 1-[1-(2-fluorophenyl)-1H-indazol-4-yl]-3-(pyrimidin-2-ylmethyl)imidazolidin-2-one] | 2.76 |
| O=C(CC1CC2CCC1C2)CN1CCN(c2cccc3c2cnn3-c2ccccc2F)C1=O (stereo not drawn) [Example 142, 1-[3-(bicyclo[2.2.1]hept-2-yl)-2-oxopropyl]-3-[1-(2-fluorophenyl)-1H-indazol-4-yl]imidazolidin-2-one] | 2 |
| CC(C)NC(=O)CN1CCN(c2cccc3c2cnn3-c2ccccc2F)C1=O [Example 95, 2-{3-[1-(2-fluorophenyl)-1H-indazol-4-yl]-2-oxoimidazolidin-1-yl}-N-isopropylacetamide] | 2.68 |
| O=C(CN1CCN(c2cccc3c2cnn3-c2ccccc2F)C1=O)c1cccnc1 [Example 152, 1-[1-(2-fluorophenyl)-1H-indazol-4-yl]-3-[2-oxo-2-(pyridin-3-yl)ethyl]imidazolidin-2-one] | 2.26 |
| O=C1N(c2cccc3c2cnn3-c2ccccc2F)CCN1[C@H]1CO[C@H](c2cccc(F)c2)C1 [Example 196, 1-[1-(2-fluorophenyl)-1H-indazol-4-yl]-3-[(3R,5S)-5-(3-fluorophenyl)tetrahydrofuran-3-yl]imidazolidin-2-one] | 4.31 |
| Cc1scnc1CN1CCN(c2cccc3c2cnn3-c2ccccc2F)C1=O [Example 245, 1-[1-(2-fluorophenyl)-1H-indazol-4-yl]-3-[(5-methyl-1,3-thiazol-4-yl)methyl]imidazolidin-2-one] | 0.207 |
| O=C1N(CC(=O)N2CCC[C@H]2C(F)(F)F)CCN1c1cccc2c1cnn2-c1ccccc1F [Example 169, 1-[1-(2-fluorophenyl)-1H-indazol-4-yl]-3-{2-oxo-2-[(2S)-2-(trifluoromethyl)pyrrolidin-1-yl]ethyl}imidazolidin-2-one] | 1.07 |
| N#C[C@H]1CCCN1C(=O)CN1CCN(c2cccc3c2cnn3-c2ccccc2F)C1=O [Example 201, (2R)-1-({3-[1-(2-fluorophenyl)-1H-indazol-4-yl]-2-oxoimidazolidin-1-yl}acetyl)pyrrolidine-2-carbonitrile] | 0.661 |
| O=C(CN1CCN(c2cccc3c2cnn3-c2ccccc2F)C1=O)c1ccccc1 [Example 143, 1-[1-(2-fluorophenyl)-1H-indazol-4-yl]-3-(2-oxo-2-phenylethyl)imidazolidin-2-one] | 0.874 |
| O=C(CN1CCN(c2cccc3c2cnn3-c2ccccc2F)C1=O)c1ccc(C(F)(F)F)cc1 [Example 151, 1-[1-(2-fluorophenyl)-1H-indazol-4-yl]-3-{2-oxo-2-[4-(trifluoromethyl)phenyl]ethyl}imidazolidin-2-one] | 20 |
| Cc1nnc(CN2CCN(c3cccc4c3cnn4-c3ccc(C(F)(F)F)cc3)C2=O)s1 [Example 240, 1-[(5-methyl-1,3,4-thiadiazol-2-yl)methyl]-3-{1-[4-(trifluoromethyl)phenyl]-1H-indazol-4-yl}imidazolidin-2-one] | 13.4 |
| CC(C)c1nnc(CN2CCN(c3cccc4c3cnn4-c3ccccc3F)C2=O)o1 [Example 256, 1-[1-(2-fluorophenyl)-1H-indazol-4-yl]-3-[(5-isopropyl-1,3,4-oxadiazol-2-yl)methyl]imidazolidin-2-one] | 3.12 |
| C[C@@H]1CN(c2cccc3c2cnn3-c2ccccc2F)C(=O)N1 [Example 246, (4R)-1-[1-(2-fluorophenyl)-1H-indazol-4-yl]-4-methylimidazolidin-2-one] | 2.98 |
| CC1(C)CCCN1C(=O)CN1CCN(c2cccc3c2cnn3-c2ccccc2F)C1=O [Example 172, 1-[2-(2,2-dimethylpyrrolidin-1-yl)-2-oxoethyl]-3-[1-(2-fluorophenyl)-1H-indazol-4-yl]imidazolidin-2-one] | 2.6 |
| CC(C)(C)c1nnc(CN2CCN(c3cccc4c3cnn4-c3ccccc3F)C2=O)o1 [Example 262, 1-[(5-tert-butyl-1,3,4-oxadiazol-2-yl)methyl]-3-[1-(2-fluorophenyl)-1H-indazol-4-yl]imidazolidin-2-one] | 2.52 |
| Cc1nc(CN2CCN(c3cccc4c3cnn4-c3ccccc3F)C2=O)cs1 [Example 217, 1-[1-(2-fluorophenyl)-1H-indazol-4-yl]-3-[(2-methyl-1,3-thiazol-4-yl)methyl]imidazolidin-2-one] | 1.07 |
| O=C1N(CC(O)CC2CCC2)CCN1c1cccc2c1cnn2-c1ccccc1F (stereo not drawn) [Example 141, 1-(3-cyclobutyl-2-hydroxypropyl)-3-[1-(2-fluorophenyl)-1H-indazol-4-yl]imidazolidin-2-one] | 1.16 |
| CC1(CN2CCN(c3cccc4c3cnn4-c3ccccc3F)C2=O)COC1 [Example 213, 1-[1-(2-fluorophenyl)-1H-indazol-4-yl]-3-[(3-methyloxetan-3-yl)methyl]imidazolidin-2-one] | 3.65 |
| O=C(CN1CCN(c2cccc3c2cnn3-c2ccccc2F)C1=O)C1CC1 [Example 183, 1-(2-cyclopropyl-2-oxoethyl)-3-[1-(2-fluorophenyl)-1H-indazol-4-yl]imidazolidin-2-one] | 2.93 |
| CC1CN(C(=O)CN2CCN(c3cccc4c3cnn4-c3ccccc3F)C2=O)CC(C)O1 (stereo not drawn) [Example 70, 1-[2-(2,6-dimethylmorpholin-4-yl)-2-oxoethyl]-3-[1-(2-fluorophenyl)-1H-indazol-4-yl]imidazolidin-2-one] | 12.2 |
| COC(=O)[C@H]1CCCN1C(=O)CN1CCN(c2cccc3c2cnn3-c2ccccc2F)C1=O [Example 119, methyl 1-({3-[1-(2-fluorophenyl)-1H-indazol-4-yl]-2-oxoimidazolidin-1-yl}acetyl)-D-prolinate] | 1.76 |
| O=C(CN1CCN(c2cccc3c2cnn3-c2ccccc2F)C1=O)N1CC2CCCC2C1 (stereo not drawn) [Example 106, 1-[1-(2-fluorophenyl)-1H-indazol-4-yl]-3-[2-(hexahydrocyclopenta[c]pyrrol-2(1H)-yl)-2-oxoethyl]imidazolidin-2-one] | 0.635 |
| CCOC(=O)/C=C/N1CCN(c2cccc3c2cnn3-c2ccccc2F)C1=O [Example 288, ethyl (2E)-3-{3-[1-(2-fluorophenyl)-1H-indazol-4-yl]-2-oxoimidazolidin-1-yl}acrylate] | 5.3 |
| CC1COCC(C)N1C(=O)CN1CCN(c2cccc3c2cnn3-c2ccccc2F)C1=O (stereo not drawn) [Example 101, 1-[2-(3,5-dimethylmorpholin-4-yl)-2-oxoethyl]-3-[1-(2-fluorophenyl)-1H-indazol-4-yl]imidazolidin-2-one] | 3.52 |
| O=C1N(c2cccc3c2cnn3-c2ccccc2F)CCN1[C@@H]1CCCC[C@H]1OCc1ccccc1 [Example 272, 1-[(1R,2R)-2-(benzyloxy)cyclohexyl]-3-[1-(2-fluorophenyl)-1H-indazol-4-yl]imidazolidin-2-one] | 0.338 |
| CC[C@@H](CO)N1CCN(c2cccc3c2cnn3-c2ccccc2F)C1=O [Example 159, 1-[1-(2-fluorophenyl)-1H-indazol-4-yl]-3-[(2S)-1-hydroxybutan-2-yl]imidazolidin-2-one] | 3.59 |
